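Assay format: 96-well plates, 48-hour exposure. At the TGI there is no net growth.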
Legend:
Test in all cases: DTP human tumour cell line panel, 48 h
[1] = tested on: CAKI-1 renal
[2] = tested on: KM12 colon
[3] = tested on: M14 melanoma
[4] = tested on: SK-OV-3 ovarian
[5] = tested on: SF-539 CNS
[6] = tested on: ACHN renal
[7] = tested on: MDA-N
[8] = tested on: BT-549 breast
[9] = tested on: HCC-2998 colon

## O=c1c2ncn(C3CCCCO3)c2n(-c2ccccc2)c(=S)n1-c1ccccc1 (stereo not drawn)
[1]
  TGI: > 97.7 µM
[2]
  TGI: > 100 µM
[3]
  TGI: > 100 µM
[4]
  TGI: 61 µM
[5]
  TGI: 32.4 µM
[6]
  TGI: > 100 µM
[7]
  TGI: > 100 µM
[8]
  TGI: 72.1 µM
[9]
  TGI: > 100 µM

## O=c1[nH]nc(-c2ccc([N+](=O)[O-])cc2)n1/N=C/c1ccc([N+](=O)[O-])cc1
[1]
  TGI: > 100 µM
[2]
  TGI: > 100 µM
[3]
  TGI: > 100 µM
[4]
  TGI: > 100 µM
[5]
  TGI: > 100 µM
[6]
  TGI: > 100 µM
[7]
  TGI: > 100 µM
[8]
  TGI: > 100 µM
[9]
  TGI: > 100 µM

## CCOP(=O)(CC1CC(O)(CNc2cc(Cl)nc(N)n2)C1)OCC (stereo not drawn)
[1]
  TGI: > 100 µM
[2]
  TGI: > 100 µM
[4]
  TGI: > 100 µM
[5]
  TGI: > 100 µM
[6]
  TGI: > 100 µM
[7]
  TGI: > 100 µM
[8]
  TGI: > 100 µM
[9]
  TGI: > 100 µM

## COc1ccc(-c2cc(C3CC3)nc(SCC(=O)O)c2C#N)cc1
[1]
  TGI: > 100 µM
[2]
  TGI: > 100 µM
[3]
  TGI: > 100 µM
[4]
  TGI: > 100 µM
[5]
  TGI: > 100 µM
[6]
  TGI: > 100 µM
[7]
  TGI: > 100 µM
[8]
  TGI: > 100 µM
[9]
  TGI: > 100 µM

## CCCN=C1Nc2ccccc2[C@@H]2N(C)c3ccccc3C(C)C[C@]12C (stereo partly drawn)
[1]
  TGI: 84.5 µM
[2]
  TGI: 34.9 µM
[3]
  TGI: 33 µM
[5]
  TGI: 30.5 µM
[6]
  TGI: 60.5 µM
[7]
  TGI: 38.7 µM
[9]
  TGI: 26.3 µM

## CCN(CC)c1ccc(/C=c2\nc(-c3ccccc3)n3c2nc2ccccc23)cc1
[1]
  TGI: 9.72 µM
[2]
  TGI: > 100 µM
[3]
  TGI: 37.9 µM
[4]
  TGI: > 100 µM
[5]
  TGI: 11.4 µM
[6]
  TGI: 88.3 µM
[7]
  TGI: 24.6 µM
[8]
  TGI: 72.2 µM
[9]
  TGI: 23.3 µM

## N#CCN1CCCCCc2ccccc21
[2]
  TGI: > 100 µM
[3]
  TGI: > 100 µM
[4]
  TGI: > 100 µM
[5]
  TGI: > 100 µM
[6]
  TGI: > 100 µM
[9]
  TGI: > 100 µM

## N#Cc1nc(C(F)(F)F)oc1N
[1]
  TGI: > 100 µM
[2]
  TGI: > 100 µM
[3]
  TGI: > 100 µM
[4]
  TGI: > 100 µM
[5]
  TGI: > 100 µM
[6]
  TGI: > 100 µM
[7]
  TGI: > 100 µM
[9]
  TGI: > 100 µM

## Cc1ccc(S(=O)(=O)Nc2nc3ccccc3c(=O)n2C2CCCCC2)cc1
[1]
  TGI: > 100 µM
[2]
  TGI: > 100 µM
[3]
  TGI: > 100 µM
[4]
  TGI: > 100 µM
[5]
  TGI: > 100 µM
[6]
  TGI: > 100 µM
[7]
  TGI: > 100 µM
[8]
  TGI: > 100 µM
[9]
  TGI: > 100 µM

## CN(C)c1ccc(/C=N/n2c(-c3ccccc3)nc3ccccc3c2=O)cc1
[1]
  TGI: > 100 µM
[2]
  TGI: > 100 µM
[3]
  TGI: > 100 µM
[4]
  TGI: > 100 µM
[5]
  TGI: > 100 µM
[6]
  TGI: > 100 µM
[7]
  TGI: > 100 µM
[8]
  TGI: > 100 µM
[9]
  TGI: > 100 µM

## Nc1nc2cc(CNc3ccc(C(=O)O)cc3)ccc2nc1-c1ccccc1
[3]
  TGI: > 100 µM
[4]
  TGI: > 100 µM
[5]
  TGI: > 100 µM
[6]
  TGI: > 100 µM
[7]
  TGI: > 100 µM
[8]
  TGI: > 100 µM
[9]
  TGI: > 100 µM

## NNC(=O)Cc1cccnc1
[1]
  TGI: > 100 µM
[2]
  TGI: > 100 µM
[3]
  TGI: > 100 µM
[4]
  TGI: > 100 µM
[5]
  TGI: > 100 µM
[6]
  TGI: > 100 µM
[7]
  TGI: > 100 µM
[8]
  TGI: > 100 µM
[9]
  TGI: > 100 µM

## NC(CCl)=NC1CN2CCC1CC2 (stereo not drawn)
[1]
  TGI: > 100 µM
[2]
  TGI: > 100 µM
[3]
  TGI: > 100 µM
[4]
  TGI: > 100 µM
[5]
  TGI: > 100 µM
[6]
  TGI: > 100 µM
[7]
  TGI: > 100 µM
[8]
  TGI: > 100 µM

## COc1ccc2c(c1)C1Oc3ccccc3CC1(O)CO2 (stereo not drawn)
[1]
  TGI: > 100 µM
[2]
  TGI: > 100 µM
[3]
  TGI: > 100 µM
[4]
  TGI: > 100 µM
[5]
  TGI: > 100 µM
[6]
  TGI: > 100 µM
[7]
  TGI: > 100 µM
[8]
  TGI: > 100 µM
[9]
  TGI: > 100 µM

## O=C1C(Cl)=C(Oc2ccc([N+](=O)[O-])cc2)C(=O)c2c(O)ccc(O)c21
[2]
  TGI: > 100 µM
[3]
  TGI: > 69.2 µM
[4]
  TGI: > 100 µM
[5]
  TGI: > 100 µM
[6]
  TGI: > 100 µM
[7]
  TGI: > 31.6 µM
[8]
  TGI: > 100 µM
[9]
  TGI: > 100 µM

## O=C1C(=Cc2ccco2)C(=O)C2CCCCC12 (stereo not drawn)
[1]
  TGI: > 100 µM
[2]
  TGI: > 100 µM
[3]
  TGI: > 100 µM
[4]
  TGI: > 100 µM
[5]
  TGI: > 100 µM
[6]
  TGI: > 100 µM
[7]
  TGI: > 100 µM
[8]
  TGI: > 100 µM
[9]
  TGI: > 100 µM

## O=C1CSC(c2cccc(Cl)c2)N1c1c(O)c(Cl)cc(Br)c1Cl (stereo not drawn)
[1]
  TGI: > 100 µM
[2]
  TGI: > 100 µM
[3]
  TGI: > 100 µM
[4]
  TGI: > 100 µM
[5]
  TGI: > 100 µM
[6]
  TGI: 27.9 µM
[7]
  TGI: 34.1 µM

## CCOC(O)C(F)(F)F (stereo not drawn)
[2]
  TGI: > 100 µM
[3]
  TGI: > 100 µM
[4]
  TGI: > 100 µM
[6]
  TGI: > 100 µM
[7]
  TGI: > 100 µM
[9]
  TGI: > 100 µM

## Fc1ccc(C2NC(=S)NC3=C2CCOc2c3ccc3ccccc23)cc1 (stereo not drawn)
[1]
  TGI: > 100 µM
[2]
  TGI: > 100 µM
[3]
  TGI: > 100 µM
[4]
  TGI: > 100 µM
[5]
  TGI: > 100 µM
[6]
  TGI: > 100 µM
[8]
  TGI: > 100 µM
[9]
  TGI: 69.1 µM

## COc1cc(CCNC2=CC(=O)c3cccnc3C2=O)ccc1O
[1]
  TGI: 5.04 µM
[2]
  TGI: 13.2 µM
[3]
  TGI: 2.98 µM
[4]
  TGI: 11.1 µM
[5]
  TGI: 3.04 µM
[6]
  TGI: 5.61 µM
[7]
  TGI: 0.308 µM
[8]
  TGI: 2.75 µM
[9]
  TGI: 3.58 µM

## N#CN=C1c2ccccc2C(=NC#N)c2cc(CO)ccc21
[1]
  TGI: > 100 µM
[2]
  TGI: > 100 µM
[3]
  TGI: > 100 µM
[5]
  TGI: > 100 µM
[6]
  TGI: 74 µM
[7]
  TGI: > 100 µM
[8]
  TGI: 95.6 µM

## CCn1nc(-c2ccccc2)c2c1N(C)c1ccccc1-n1c(-c3ccccc3)nnc1-2
[3]
  TGI: 32.1 µM
[4]
  TGI: 38.5 µM
[5]
  TGI: 48 µM
[6]
  TGI: 26.8 µM
[7]
  TGI: 28.9 µM
[9]
  TGI: 29.3 µM

## N#Cc1ccc(OC(=O)c2ccc(N=C(N)N)cc2)cc1
[1]
  TGI: > 100 µM
[2]
  TGI: > 100 µM
[3]
  TGI: > 100 µM
[4]
  TGI: > 100 µM
[5]
  TGI: > 100 µM
[6]
  TGI: > 100 µM
[7]
  TGI: > 100 µM
[8]
  TGI: > 100 µM

## OCc1c2c(cc3c1CC1(C3)Cc3cc4c(c(CO)c3C1)CCC4)CCC2
[2]
  TGI: 31.2 µM
[3]
  TGI: 32.9 µM
[4]
  TGI: 33 µM
[5]
  TGI: 32.1 µM
[6]
  TGI: 22.6 µM
[7]
  TGI: 29.2 µM
[9]
  TGI: 35 µM

## C=C(C)[C@@H]1CC[C@]2(CO)CC[C@]3(C)[C@H](CC[C@@H]4[C@@]5(C)CC[C@H](O)C(C)(C)[C@@H]5CC[C@]43C)[C@@H]12
[1]
  TGI: 29 µM
[2]
  TGI: > 100 µM
[3]
  TGI: > 100 µM
[5]
  TGI: 33.8 µM
[6]
  TGI: 25.6 µM
[7]
  TGI: > 100 µM
[8]
  TGI: 39.8 µM

— PubChem BioAssay (NCI)
